According to PubChem BioAssay (NCI):
Several values for one entry are separate records, joined by “and”; a condition that tells them apart may be missing. Equal entries are not always repeated.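 Values below derive from 48-hour exposures of cells grown in 96-well plates, with endpoints linearly interpolated between the two concentrations bracketing the appropriate inhibition level. At the GI50, growth is halved. TGI is the concentration that stops growth completely.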

Tests used:
Test in all cases: NCI tumour cell line growth inhibition, 48 h
[1] = tested on: M14 melanoma
[2] = tested on: OVCAR-4 ovarian
[3] = tested on: SW-620 colon
[4] = tested on: EKVX NSCLC
[5] = tested on: SK-OV-3 ovarian
[6] = tested on: MCF7 breast
[7] = tested on: DLD-1 colon
[8] = tested on: KM20L2 colon

| Structure (SMILES) | TGI [1] | TGI [2] | TGI [3] | TGI [4] | TGI [5] | TGI [6] | GI50 [7] | TGI [7] | GI50 [8] | TGI [8] | GI50 [1] | GI50 [2] | GI50 [3] | GI50 [4] | GI50 [5] | GI50 [6] |
| --- | --- | --- | --- | --- | --- | --- | --- | --- | --- | --- | --- | --- | --- | --- | --- | --- |
| O=[N+]([O-])C(C(Cl)=C(Cl)Cl)=C(N1CCCCC1)N1CCCCC1 | > 100 µM | > 100 µM | > 100 µM | > 100 µM | > 100 µM | > 100 µM | – | – | – | – | – | – | – | – | – | – |
| Cc1n[nH]c(=O)n1/N=C/c1ccco1 | > 100 µM | > 100 µM | > 100 µM | > 100 µM | > 100 µM | > 100 µM | – | – | – | – | – | – | – | – | – | – |
| c1ccc2c(c1)nc1ccccn12 | > 100 µM | – | > 100 µM | > 100 µM | > 100 µM | > 100 µM | – | – | – | – | – | – | – | – | – | – |
| CNC(=O)O/N=C1\N(C)CN(c2ccccc2)C12CCN(CCCC(=O)c1ccc(F)cc1)CC2 | 32.9 µM | > 100 µM | > 100 µM | > 100 µM | > 100 µM | > 100 µM | – | – | – | – | – | – | – | – | – | – |
| N#Cc1c(C#N)c(SSc2c(C#N)c(C#N)c(N)n2-c2cccc3ccccc23)n(-c2cccc3ccccc23)c1N | 8.4 µM | 41.9 µM | > 100 µM | 10.1 µM | 54.8 µM | > 100 µM | – | – | – | – | – | – | – | – | – | – |
| Cc1cc(NS(=O)(=O)c2ccc(NO)cc2)no1 | > 100 µM | > 100 µM | 82.9 µM | > 100 µM | > 100 µM | 47.1 µM | – | – | – | – | – | – | – | – | – | – |
| Cc1c2c(n3c(nc4ccccc43)c1C#N)N(c1ccc(F)cc1)CC2 | – | > 100 µM | > 100 µM | – | > 100 µM | > 100 µM | – | – | – | – | – | – | – | – | – | – |
| CC1(C)CC(=O)c2c(-c3ccc(Cl)cc3)c(C#N)c(=S)n(C3OC(CO)C(O)C(O)C3O)c2C1 (configuration not stated) | > 100 µM | > 100 µM | > 100 µM | – | – | > 100 µM | – | – | – | – | – | – | – | – | – | – |
| COc1ccc2nc3c4c(nccc4c2c1)-c1ncccc1C3=O | 0.29 µM | 2.01 µM | 0.567 µM | 0.903 µM | 0.386 µM | 0.179 µM | – | – | – | – | – | – | – | – | – | – |
| Cn1c2ncccc2n2c(=O)cc(O)cc12 | > 100 µM | > 100 µM | > 100 µM | > 100 µM | > 100 µM | > 100 µM | – | – | – | – | – | – | – | – | – | – |
| Nc1ccc(-c2nc3ccccc3s2)cc1CO | > 100 µM | > 100 µM | > 100 µM | > 49.2 µM | > 100 µM | – | – | – | – | – | – | – | – | – | – | – |
| CC(C)(C)OC(=O)N(O)CCCn1cnc2c(NC3CC3)ncnc21 | > 100 µM | > 100 µM | > 100 µM | > 100 µM | > 100 µM | > 100 µM | – | – | – | – | – | – | – | – | – | – |
| O=C(Nc1ccccc1)OCCN=c1c2ccccc2ccc2ccccc12 | 40.8 µM | > 100 µM | > 100 µM | 92.4 µM | > 100 µM | – | – | – | – | – | – | – | – | – | – | – |
| COc1ccc(/C(C)=C2\CCCN(Cc3ccccc3)C2)cc1 | 36.7 µM | > 100 µM | 36.1 µM | > 100 µM | 80.3 µM | 37.8 µM | – | – | – | – | – | – | – | – | – | – |
| COc1ccc2nc3ccc(OC)cc3c(S(=O)Cc3ccccc3)c2c1 (configuration not stated) | 30.1 µM | 30.2 µM | > 32.1 µM | 30.5 µM | 33.9 µM | – | – | – | – | – | – | – | – | – | – | – |
| O=C(Nn1c(-c2ccccc2)nc2ccccc2c1=O)c1cccc([N+](=O)[O-])c1 | > 100 µM | > 100 µM | > 100 µM | > 100 µM | > 100 µM | > 100 µM | – | – | – | – | – | – | – | – | – | – |
| O=c1cccccc1[O-].O=c1cccccc1[O-].O=c1cccccc1[O-].[Nd+3] | 87 µM | > 100 µM | > 100 µM | > 100 µM | > 100 µM | – | 36.4 µM | > 100 µM | 31.7 µM | > 100 µM | – | – | – | – | – | – |
| COc1cccc(CCn2c(N)c(-c3cc(Cl)cc(Cl)c3)c3ccc([N+](=O)[O-])cc3c2=O)c1 | > 100 µM | > 100 µM | > 100 µM | > 100 µM | > 100 µM | 89.2 µM | – | – | – | – | – | – | – | – | – | – |
| CCOC(=O)c1ccc(N=C2Sc3nc4ccccc4n3C2=Nc2ccc(C(=O)OCC)cc2)cc1 | 37.1 µM | 81.5 µM | > 100 µM | > 100 µM | > 100 µM | 31.3 µM | – | – | – | – | – | – | – | – | – | – |
| N#CCCC1(CCC#N)S(=O)(=O)OCCOS1(=O)=O | > 100 µM | > 100 µM | > 100 µM | > 100 µM | > 100 µM | > 100 µM | – | – | – | – | – | – | – | – | – | – |
| CCC1(c2ccc(OC)c(OC)c2)CCN(S(=O)(=O)c2ccc(C)cc2)C1 (configuration not stated) | > 100 µM | > 100 µM | > 100 µM | > 100 µM | > 100 µM | > 100 µM | – | – | – | – | – | – | – | – | – | – |
| CCC1=CC(OCc2ccccc2)C(CCN(Cc2ccccc2)C(=O)OCc2ccccc2)C1 (configuration not stated) | 27.8 µM | 27.4 µM | 37 µM | 32.8 µM | 80.6 µM | 35 µM | – | – | – | – | – | – | – | – | – | – |
| COC(=O)CN1Cc2cc(C)cc(c2O)CN(CC(=O)OC)Cc2cc(C)cc(c2O)CN(CC(=O)OC)Cc2cc(C)cc(c2O)CN(CC(=O)OC)Cc2cc(C)cc(c2O)C1 | 18.7 µM and 51.5 µM | 50 µM and > 100 µM | 50 µM and > 100 µM | 50 µM and > 100 µM | 46.2 µM and > 100 µM | 50 µM and > 100 µM | – | – | – | – | 17.7 µM | 33.1 µM | 18 µM | 35.3 µM | 35.3 µM | 39.9 µM |
| CC(=O)N1C(c2[nH]c3ccccc3c2Cc2ccccc2)CCN1c1ccccc1 (configuration not stated) | > 10 µM | > 10 µM | > 10 µM | > 10 µM | > 10 µM | > 10 µM | – | – | – | – | – | – | – | – | – | – |
| CN1N=C(c2ccncc2)OC1c1cccc(F)c1 (configuration not stated) | > 100 µM | > 100 µM | > 100 µM | > 100 µM | > 100 µM | > 100 µM | – | – | – | – | – | – | – | – | – | – |
| COC1(OC)CCN(Cc2ccccc2)C1=O | 23 µM | 30.6 µM | 7.28 µM | 29.7 µM | > 100 µM | 25.3 µM | – | – | – | – | – | – | – | – | – | – |
| COc1cc2c(cc1NC(=O)c1ccccc1)c1c(n2S(=O)(=O)c2ccccc2)CCN(S(=O)(=O)c2ccccc2)C1 | > 100 µM | > 100 µM | > 100 µM | – | > 100 µM | – | – | – | – | – | – | – | – | – | – | – |
| CC/C(Cl)=N\OC(=O)Nc1ccc(F)c(Cl)c1 | 23.1 µM | 31.1 µM | 6.92 µM | 32.9 µM | 32.5 µM | 20.1 µM | – | – | – | – | – | – | – | – | – | – |
